{"source": "patent US12655116B2", "about": "“Substituted isophthalic acid diamides” (Bayer Aktiengesellschaft, priority 2020, dated 2026)", "key": {"VIOTR [1]": {"test_system": "VIOTR", "experiment": "Pre-emergence herbicidal action against VIOTR", "type": "in vivo, Viola tricolor", "summary_of_the_method": "(§1)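 Herbicidal effect was assessed 3 weeks after treatment by visual comparison with untreated controls, 100% denoting dead plants. Aqueous WP or EC preparations had been applied at 600 to 800 l/ha with 0.2% wetting agent to the soil covering freshly sown seeds.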"}, "ABUTH [2]": {"test_system": "ABUTH", "experiment": "Pre-emergence herbicidal action against ABUTH", "type": "in vivo, Abutilon theophrasti", "summary_of_the_method": "as §1"}, "ECHCG [3]": {"test_system": "ECHCG", "experiment": "Post-emergence herbicidal action against ECHCG", "type": "in vivo, Echinochloa crus-galli", "settings": "dosage 20 g/ha", "summary_of_the_method": "(§2)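 Herbicidal effect was scored visually in percent after about 3 weeks in the greenhouse. Plants had been raised in sandy loam and treated post-emergence at the one-leaf stage with formulated compound at 600 to 800 l/ha water plus 0.2% wetting agent.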"}, "AMARE [4]": {"test_system": "AMARE", "experiment": "Pre-emergence herbicidal action against AMARE", "type": "in vivo, Amaranthus retroflexus", "summary_of_the_method": "as §1"}, "ECHCG [5]": {"test_system": "ECHCG", "experiment": "Pre-emergence herbicidal action against ECHCG", "type": "in vivo, Echinochloa crus-galli", "summary_of_the_method": "as §1"}, "MATIN [6]": {"test_system": "MATIN", "experiment": "Pre-emergence herbicidal action against MATIN", "type": "in vivo, Matricaria inodora", "summary_of_the_method": "as §1"}, "SETVI [7]": {"test_system": "SETVI", "experiment": "Post-emergence herbicidal action against SETVI", "type": "in vivo, Setaria viridis", "settings": "dosage 20 g/ha", "summary_of_the_method": "as §2"}, "POLCO": {"test_system": "POLCO", "experiment": "Pre-emergence herbicidal action against POLCO", "type": "in vivo, Polygonum convolvulus", "settings": "dosage 80 g/ha", "summary_of_the_method": "as §1"}, "SETVI [8]": {"test_system": "SETVI", "experiment": "Pre-emergence herbicidal action against SETVI", "type": "in vivo, Setaria viridis", "settings": "dosage 80 g/ha", "summary_of_the_method": "as §1"}, "AVEFA [9]": {"test_system": "AVEFA", "experiment": "Post-emergence herbicidal action against AVEFA", "type": "in vivo, Avena fatua", "settings": "20 g/ha, visual assessment about 3 weeks after treatment, 100% = plants have died, 0% = like control plants", "summary_of_the_method": "as §2"}, "VIOTR [10]": {"test_system": "VIOTR", "experiment": "Post-emergence herbicidal action against VIOTR", "type": "in vivo, Viola tricolor", "summary_of_the_method": "as §2"}, "MATIN [11]": {"test_system": "MATIN", "experiment": "Post-emergence herbicidal action against MATIN", "type": "in vivo, Matricaria inodora", "summary_of_the_method": "as §2"}, "PHBPU": {"test_system": "PHBPU", "experiment": "Post-emergence herbicidal action against PHBPU", "type": "in vivo, Pharbitis purpurea", "summary_of_the_method": "as §2"}, "VERPE [12]": {"test_system": "VERPE", "experiment": "Post-emergence herbicidal action against VERPE", "type": "in vivo, Veronica persica", "settings": "20 g/ha", "summary_of_the_method": "as §2"}, "ALOMY [13]": {"test_system": "ALOMY", "experiment": "Post-emergence herbicidal action against ALOMY", "type": "in vivo, Alopecurus myosuroides", "settings": "dosage 20 g/ha, visual assessment about 3 weeks after treatment vs untreated controls", "summary_of_the_method": "as §2"}, "VERPE [14]": {"test_system": "VERPE", "experiment": "Pre-emergence herbicidal action against VERPE", "type": "in vivo, Veronica persica", "settings": "dosage 80 g/ha", "summary_of_the_method": "as §1"}, "AMARE [15]": {"test_system": "AMARE", "experiment": "Post-emergence herbicidal action against AMARE", "type": "in vivo, Amaranthus retroflexus", "settings": "20 g/ha, visual assessment about 3 weeks after treatment, 100% = plants have died, 0% = like control plants", "summary_of_the_method": "as §2"}, "ABUTH [16]": {"test_system": "ABUTH", "experiment": "Post-emergence herbicidal action against ABUTH", "type": "in vivo, Abutilon theophrasti", "settings": "visual assessment about 3 weeks after treatment vs untreated controls", "summary_of_the_method": "as §2"}, "AVEFA [17]": {"test_system": "AVEFA", "experiment": "Pre-emergence herbicidal action against AVEFA", "type": "in vivo, Avena fatua", "settings": "Avena fatua, 504 h; 80 g/ha, pre-emergence", "summary_of_the_method": "as §1"}, "ALOMY [18]": {"test_system": "ALOMY", "experiment": "Pre-emergence herbicidal action against ALOMY", "type": "in vivo, Alopecurus myosuroides", "settings": "Alopecurus myosuroides, 504 h, pre-emergence", "summary_of_the_method": "as §1"}, "[19]": {"settings": "80 g/ha, scored visually after 3 weeks vs untreated controls (100% = plants have died, 0% = like control plants)"}, "[20]": {"settings": "Tripleurospermum inodorum, 504 h, dosage 20 g/ha"}}, "data": [{"molecule": "CCn1nnnc1NC(=O)c1ccc(C(F)(F)F)c(C(=O)NC(C)C2CC2)c1SC", "note": "(stereo not shown) [Example 2-350]", "values": [{"measurement": "Pre-emergence action against VIOTR in %", "setting": "VIOTR [1]; dosage 20 g/ha", "result": 100, "unit": "%"}, {"measurement": "Pre-emergence action against VIOTR in %", "setting": "VIOTR [1]; dosage 80 g/ha", "result": 100, "unit": "%"}, {"measurement": "Pre-emergence action against ABUTH (herbicidal activity)", "setting": "ABUTH [2]; [19]", "result": 100, "unit": "%"}, {"measurement": "Pre-emergence action against ABUTH (herbicidal activity in percent)", "setting": "ABUTH [2]; dosage 20 g/ha, scored visually after 3 weeks vs untreated controls, 100% = plants have died, 0% = like control plants", "result": 100, "unit": "%"}, {"measurement": "Post-emergence action against ECHCG in %", "setting": "ECHCG [3]", "result": 100, "unit": "%"}, {"measurement": "Pre-emergence action against AMARE in %", "setting": "AMARE [4]; 20 g/ha, scored visually after 3 weeks vs untreated controls, 100% = plants have died, 0% = like control plants", "result": 100, "unit": "%"}, {"measurement": "Pre-emergence action against AMARE in %", "setting": "AMARE [4]; [19]", "result": 100, "unit": "%"}, {"measurement": "Pre-emergence action against ECHCG in %", "setting": "ECHCG [5]; 20 g/ha", "result": 80, "unit": "%"}, {"measurement": "Pre-emergence action against ECHCG in %", "setting": "ECHCG [5]; 80 g/ha", "result": 100, "unit": "%"}, {"measurement": "Pre-emergence action against MATIN in %", "setting": "MATIN [6]; dosage 20 g/ha", "result": 100, "unit": "%"}, {"measurement": "Pre-emergence action against MATIN in %", "setting": "MATIN [6]; dosage 80 g/ha", "result": 100, "unit": "%"}, {"measurement": "Post-emergence action against SETVI in %", "setting": "SETVI [7]", "result": 100, "unit": "%"}, {"measurement": "Pre-emergence action against POLCO in %", "setting": "POLCO", "result": 100, "unit": "%"}, {"measurement": "Pre-emergence action against SETVI in %", "setting": "SETVI [8]", "result": 100, "unit": "%"}, {"measurement": "Post-emergence action at 20 g/ha against AVEFA in %", "setting": "AVEFA [9]", "result": 90, "unit": "%"}, {"measurement": "Post-emergence action against VIOTR in %", "setting": "VIOTR [10]; 5 g/ha", "result": 100, "unit": "%"}, {"measurement": "Post-emergence action against VIOTR in %", "setting": "VIOTR [10]; 20 g/ha", "result": 100, "unit": "%"}, {"measurement": "Post-emergence action against MATIN in %", "setting": "MATIN [11]; dosage 5 g/ha", "result": 80, "unit": "%"}, {"measurement": "Post-emergence action against MATIN in %", "setting": "MATIN [11]; dosage 20 g/ha", "result": 90, "unit": "%"}, {"measurement": "Post-emergence action against PHBPU in %", "setting": "PHBPU; dosage 5 g/ha", "result": 80, "unit": "%"}, {"measurement": "Post-emergence action against PHBPU in %", "setting": "PHBPU; dosage 20 g/ha", "result": 80, "unit": "%"}, {"measurement": "Post-emergence action against VERPE in %", "setting": "VERPE [12]", "result": 80, "unit": "%"}, {"measurement": "Post-emergence action against ALOMY in %", "setting": "ALOMY [13]", "result": 80, "unit": "%"}, {"measurement": "Pre-emergence action against VERPE in %", "setting": "VERPE [14]", "result": 100, "unit": "%"}, {"measurement": "Post-emergence action at 20 g/ha against AMARE in %", "setting": "AMARE [15]", "result": 100, "unit": "%"}, {"measurement": "Post-emergence action against ABUTH in %", "setting": "ABUTH [16]; dosage 20 g/ha", "result": 80, "unit": "%"}]}, {"molecule": "CCn1nnnc1NC(=O)c1ccc(C(F)(F)F)c(C(=O)NC2CC2)c1SC", "note": "[Example 2-83]", "values": [{"measurement": "pest or weed control at 80 g/ha", "setting": "VIOTR [1]; Viola tricolor, 504 h, dosage 80 g/ha", "result": 100, "unit": "%"}, {"measurement": "pest or weed control at 80 g/ha", "setting": "ABUTH [2]; Abutilon theophrasti, 504 h, 80 g/ha, scored visually after 3 weeks vs untreated controls (100% = plants have died, 0% = like control plants)", "result": 100, "unit": "%"}, {"measurement": "pest or weed control at 20 g/ha", "setting": "ABUTH [2]; Abutilon theophrasti, 504 h, dosage 20 g/ha, scored visually after 3 weeks vs untreated controls, 100% = plants have died, 0% = like control plants, read-out: Pre-emergence action against ABUTH (herbicidal activity in percent)", "result": 100, "unit": "%"}, {"measurement": "pest or weed control at 20 g/ha", "setting": "ECHCG [3]; Echinochloa crus-galli, 504 h", "result": 90, "unit": "%"}, {"measurement": "pest or weed control at 20 g/ha", "setting": "AMARE [4]; Amaranthus retroflexus, 504 h, 20 g/ha, scored visually after 3 weeks vs untreated controls, 100% = plants have died, 0% = like control plants", "result": 100, "unit": "%"}, {"measurement": "pest or weed control at 80 g/ha", "setting": "AMARE [4]; Amaranthus retroflexus, 504 h, 80 g/ha, scored visually after 3 weeks vs untreated controls, 100% = plants have died, 0% = like control plants", "result": 100, "unit": "%"}, {"measurement": "pest or weed control at 80 g/ha", "setting": "ECHCG [5]; Echinochloa crus-galli, 504 h, 80 g/ha", "result": 90, "unit": "%"}, {"measurement": "pest or weed control at 80 g/ha", "setting": "AVEFA [17]", "result": 90, "unit": "%"}, {"measurement": "pest or weed control at 20 g/ha", "setting": "MATIN [6]; [20]", "result": 100, "unit": "%"}, {"measurement": "pest or weed control at 80 g/ha", "setting": "MATIN [6]; Tripleurospermum inodorum, 504 h, dosage 80 g/ha", "result": 100, "unit": "%"}, {"measurement": "pest or weed control at 20 g/ha", "setting": "SETVI [7]; Setaria viridis, 504 h", "result": 100, "unit": "%"}, {"measurement": "pest or weed control at 80 g/ha", "setting": "POLCO; Fallopia convolvulus, 504 h", "result": 90, "unit": "%"}, {"measurement": "pest or weed control at 80 g/ha", "setting": "ALOMY [18]; [19]", "result": 90, "unit": "%"}, {"measurement": "pest or weed control at 20 g/ha", "setting": "ALOMY [18]; 20 g/ha, scored visually after 3 weeks, 100% = plants have died, 0% = like control plants", "result": 90, "unit": "%"}, {"measurement": "pest or weed control at 80 g/ha", "setting": "SETVI [8]; Setaria viridis, 504 h", "result": 100, "unit": "%"}, {"measurement": "pest or weed control at 20 g/ha", "setting": "AVEFA [9]; Avena fatua, 504 h", "result": 90, "unit": "%"}, {"measurement": "pest or weed control at 5 g/ha", "setting": "VIOTR [10]; Viola tricolor, 504 h, 5 g/ha", "result": 80, "unit": "%"}, {"measurement": "pest or weed control at 20 g/ha", "setting": "VIOTR [10]; Viola tricolor, 504 h, 20 g/ha", "result": 80, "unit": "%"}, {"measurement": "pest or weed control at 5 g/ha", "setting": "MATIN [11]; Tripleurospermum inodorum, 504 h, dosage 5 g/ha", "result": 80, "unit": "%"}, {"measurement": "pest or weed control at 20 g/ha", "setting": "MATIN [11]; [20]", "result": 100, "unit": "%"}, {"measurement": "pest or weed control at 20 g/ha", "setting": "PHBPU; Ipomoea purpurea, 504 h, dosage 20 g/ha", "result": 80, "unit": "%"}, {"measurement": "pest or weed control at 20 g/ha", "setting": "VERPE [12]; Veronica persica, 504 h", "result": 80, "unit": "%"}, {"measurement": "pest or weed control at 20 g/ha", "setting": "ALOMY [13]; Alopecurus myosuroides, 504 h", "result": 100, "unit": "%"}, {"measurement": "pest or weed control at 20 g/ha", "setting": "AMARE [15]; Amaranthus retroflexus, 504 h", "result": 100, "unit": "%"}, {"measurement": "pest or weed control at 5 g/ha", "setting": "ABUTH [16]; Abutilon theophrasti, 504 h, dosage 5 g/ha", "result": 90, "unit": "%"}, {"measurement": "pest or weed control at 20 g/ha", "setting": "ABUTH [16]; Abutilon theophrasti, 504 h, dosage 20 g/ha", "result": 90, "unit": "%"}]}]}
